Molecules are shown by their SMILES. Entries after “also recorded” stand apart in the source; their conditions may differ.

One assay relates to AGEs in human DMM. Description: Reduction of AGEs in human decellularized muscle matrix (DMM) from MTF Biologics. Type of assay: biochemical. The following applies: older human samples, 10 mM ALT-711, 37° C., 5 days. How it is done:
Exemplary method for reducing AGEs in decellularized muscle xi. 10 mM ALT-711 is added to each well, and then placed in the 37° C. incubator for 5 days.
xii. After 5 days, the samples are washed 3 times with diH20 each, and then the samples are frozen at −80° C.
In addition, human decellularized muscle from MTF Biologics was also tested for feasibility to reduce AGEs in older human samples using the same protocol as described above.

Assay [1] has as its system AGEs in decellularized muscle matrix (DMM). Description: Reduction of AGEs in decellularized mouse gastrocnemius muscle matrix (DMM). Type of assay: biochemical. As to conditions: C57BL6 mouse gastrocnemius, 2-month vs 20-month; 10 mM ALT-711, 37° C., 5 days; FIG. 3. How it is done: • i. Gastrocnemius is thawed in a 37° C. water bath and then butterflied. • ii. The muscles are washed in a T-25 flask (standing vertical) with 20 ml of deionized water per well 3 times for 10 minutes each. • iii. Tissue is then treated with 20 ml of 0.25% Trypsin for 12-16 hours in a T-25 flask (standing vertical) on an orbital shaker plate. Use tape to secure the flask in a vertical position. • iv. Trypsin treatment is followed by 3 20 ml 15 minute deionized water washes per well. • v. Tissue is treated with 20 mL of 0.1% TRITON X-100™ in a T-25 flask for 8 hours at 4° C. The volume is replaced with fresh TRITON X-100™ and the tissue is treated for another 16 hours. Treatment is followed by 3 20 ml 15 minute deionized water washes per well. • vi. Samples are placed in 20 mL of 60 mM sodium deoxycholate with 0.6 mM SB-16 for 8 hours in a T-25 flask at 4° C. The volume is replaced with fresh sodium deoxycholate and SB-16 and the tissue is treated for another 16 hours. • vii. Samples are washed as described in deionized water and placed in 20 mL of 70 mM CHAPS for 8 hours in a T-25 mL flask at 4° C. The volume is replaced with fresh CHAPS and the tissue is treated for another 16 hours. • viii. […]

Turning to `Cc1sc[n+](CC(=O)c2ccccc2)c1C.[Cl-]` [ALT-711, alargebrium chloride 711], the “AGEs normalized to protein” value in the assay with AGEs in human DMM (FIG. 4A) is listed as “reduced AGEs”. In addition, in the assay with AGEs in human DMM (FIG. 4B), the “AGEs normalized to hydroxyproline” value is recorded as “reduced AGEs”. Further, the “level of AGEs in decellularized muscle matrix (DMM)” value in assay [1] was “reduced levels of AGEs; also recorded: reduces the higher level of AGEs seen in the 20-month decellularized muscle matrix (DMM) to young adult levels”.

The values above are taken from patent US20250034413A1, “METHODS FOR DECELLULARIZING ANIMAL TISSUE AND BIOINKS DERIVED THEREFROM” (VIRGINIA COMMONWEALTH UNIVERSITY, priority 2021, published 2025).
